For series [1], the system named is mouse-cultured cortical cells. To be noted: pretreatment; Di Menna, 2013; cited from earlier work.
Series [2] has as its system lysolecithin model. To be noted: Hu, 2011; cited from earlier work.
The test system of series [3] is reactive astrocytes. Nature of the series: CCL7 release in conditioned media from reactive astrocytes (ELISA). Format: cell-based, mice. Conditions: LPS+IFNγ. The protocol: (§1) Mice mixed glial cells were cultured as described by McCarthy et al., 1980. Primary mice glial cells were prepared from the cortical of newborn Swiss mice (1 day). Briefly, meninges and blood vessels of the mice cortex were removed and placed in ice-cold medium of L15 containing 2% of PS and 1% of BSA. Tissues were dissociated with 0.25% trypsin-EDTA at 37° C. for 10 min. Cells were then submitted to a supplementary incubation of 15 min at 37° C. in presence of deoxyribonuclease I (final concentration of 0.5 mg/mL). Cells were then pelleted (5 min at 1200 rpm) and trypsinization was stopped by adding DMEM supplemented with 10% FCS, 1 mM of Na/pyruvate (PanBiotech, ref: P04-43100, batch: 3470914) and 2% PS. Cells suspension was mechanically dissociated and filtered through 40 μm diameter nylon meshes (BD Falcon, Ref: 352340). The cells were collected by centrifugation at 1200 rpm/min for 10 min, re-suspended in culture medium and then plated in culture flasks (Dutscher, ref: 690175). Cells were seeded at a density of 1.25×10^5 cells/cm2 and cultured in 5% CO2 at 37° C. Medium was changed three times per week.
(§2) Purification of astrocytes cells was done as described by Kim et al., 2006. After 14 days, the flasks were shaken on a rotary shaker at 200 rpm for 3 h. The resulting cell suspension rich in microglia was removed. Cells remaining in the flasks from which microglia had been harvested correspond to astrocytes at a purity of about 90%. Astrocytes were cultured in DMEM supplemented with 10% FCS, 1 mM of Na/pyruvate and 2% at 5% CO2 and 37° C. in flasks of 25 cm2.
(§3) When reaching confluence, primary astroglial cells were first incubated for 2 hours with Fingolimod (1 nM, 10 nM) or Laquinimod (1 nM, 10 nM, 100 nM, 1 μM, 10 μM) alone or in co-incubation or control medium.
(§4) At the end of 2 hours treatment with test compounds, astrocyte culture was activated with serum-free DMEM containing LPS (100 ng/mL; Sigma, Serotype 026:B6, ref: L2654; batch: 123M4052V) and IFNγ (10 ng/mL; Peprotech; ref: 315-05; batch: 061398 L0513) for 6 hours (Kim and Lee, 2013; Shu et al., 2014; Gresa-Arribas et al., 2012) in absence or presence of test compounds.
(§5) To obtain LPS/INFγ free conditioned media (CM), after 6 hours, cells were washed twice with DMEM and medium was replaced with DMEM supplemented with B27 (2%), L-glutamine (2 mM), PS solution (2%). LCM was collected 24 hrs after. For control, cells were incubated with medium not containing LPS/INFγ. […]
In general terms: An ELISA detects its analyte on a solid surface through an enzyme-linked reagent.

The conditions of series [4]: DA EAE rats, doses 0.03-0.3 mg/kg; Foster, 2007; cited from earlier work.
The test system of series [5] is peripheral lymphocyte counts. Kind of series: Peripheral lymphocyte counts with fingolimod. Format: in vivo. Conditions: S1P receptor-mediated.
Series [6] relates to mouse primary microglia. Nature of the series: Pro-inflammatory cytokine production in mouse primary microglia. Format: cell-based.
The subject of series [7] is oligodendrocytes. To be noted: inflammatory insults; Rochelle, 2007; cited from earlier work.
Series [8] concerns reactive astrocytes. Nature of the series: IL-6 concentration in conditioned media from reactive astrocytes (cytometry). Format: cell-based, mice. Conditions: LPS+IFNγ. Here is the method: as §1, §2, §3, §4, §5
Series [9] deals with cuprizone model. Kind of series: Demyelination and re-myelination in the cuprizone model. Format: in vivo.
The test system of series [10] is lysolecithin model. Kind of series: Lysolecithin-induced demyelination model. Format: in vivo.
Series [11] deals with oligodendrocytes. Kind of series: Oligodendrocyte survival under inflammatory insults. Format: cell-based.
The subject of series [12] is lymphocyte counts. Nature of the series: Lymphocyte counts over time with laquinimod versus placebo. Format: in vivo. To be noted: laquinimod 0.6 mg group vs placebo or baseline, all visits.
The test system of series [13] is NF-κB pathway. Kind of series: p65 translocation into the astrocyte nucleus in vivo.
Series [14] relates to microglia/macrophages. Kind of series: Microglial activation in EAE-afflicted mice. Format: in vivo. Conditions: spinal cord of EAE-afflicted mice. The text has this:
Laquinimod inhibited microglial activation in EAE in mice. Transcripts encoding markers of activation of microglia/macrophages were increased in the spinal cord of EAE-afflicted mice and decreased in laquinimod-treated animals, as presented in FIG. 15.

Series [15] deals with mouse microglia. Kind of series: Mouse microglia TNF-α secretion upon LPS activation. Format: cell-based. The text has this: (§6) In another study, laquinimod reduced microglial activation in culture. The size of CD14 stained human microglia was increased with LPS activation. Also, in FIG. 13, human (C) or mouse (D) microglia elevated TNF-α secretion upon LPS activation, which was attenuated by laquinimod.

The subject of series [16] is established EAE. Kind of series: Established EAE. Format: in vivo.
The subject of series [17] is human microglia. Nature of the series: Human microglia activation in culture (LPS). Format: cell-based.
Text: as §6

For series [18], the system named is H2TT (primary neuronal culture) cells. Kind of series: Oxidative glutamate toxicity of H2TT cells. Format: cell-based. To be noted: prolonged incubation.
Where [19] appears, read: Mus musculus, Astrocyte, 1 nM, read-out: % inhibition of IL-6 release.
Setting [20] is: Mus musculus, Astrocyte, 10 nM, read-out: % inhibition of IL-6 release.

The text below walks through data of patent US20160074380A1, “Treatment Of Neurodegenerative Diseases With Combination Of Laquinimod And Fingolimod” (TEVA PHARMACEUTICAL INDUSTRIES LTD., priority 2014, published 2016).

Read-outs that look alike come from different tables or passages of the source.

By inhibition is commonly meant how much of the control response was suppressed. In the case of `CCCCCCCCc1ccc(CCC(N)(CO)CO)cc1` [Fingolimod], in series [1], the “protection of neurons against NMDA toxicity” value was “protected neurons against NMDA toxicity”. In addition, the re-myelination entry in series [2] was “lack of any effect”. For the same compound, in series [3] (1 nM), the CCL-7 content is 24.396 pg/mL. Also, the inhibition at 0.001 µM came to 43.7% in series [3] (Mus musculus, Astrocyte, 1 nM) and 23.3% in [8] (setting [19]). The inhibition at 0.01 µM in series [3] (Mus musculus, Astrocyte, 10 nM) turned out to be 59.9%; in [8] (setting [20]) it was 32.9%. The brain/blood ratio entry in series [4] is given as “about 20”. Besides, the lymphocyte count reduction result in [5] was “dose dependent”. Moreover, the “microglial production of pro-inflammatory cytokine” value in [6] is listed as “inhibited”. For the same compound, the oligodendrocyte survival entry in [7] is “did protect oligodendrocytes”. Further, the IL-6 content in [8] (1 nM) was 5421 pg/mL; in [8] (10 nM) it was 4744 pg/mL.
On to `CCN(C(=O)c1c(O)c2c(Cl)cccc2n(C)c1=O)c1ccccc1` [Laquinimod], for which the re-myelination result in series [9] (after cuprizone withdrawal) is “no effect”. In [9] (cuprizone model (non-T cell model of demyelination)), the demyelination entry is listed as “significantly less demyelination”. Moreover, the lysolecithin-induced demyelination entry in series [10] is reported as “no effect”. In addition, the oligodendrocyte survival result in [11] was “does not protect oligodendrocytes”. The lymphocyte counts result in series [12] was “remained stable”. Moreover, the CCL-7 content is reported as 26.447 pg/mL in [3] (1 nM) and 21.093 pg/mL in series [3] (10 nM). Also, the inhibition at 0.001 µM in series [3] (Mus musculus, Astrocyte, 1 nM) came out at 39%; in series [8] (setting [19]), 12.3%. The inhibition at 0.01 µM in [3] (Mus musculus, Astrocyte, 10 nM) stood at 51.3%; in [8] (setting [20]), 10.6%. The same compound displayed an inhibition at 0.1 µM in [3] (Mus musculus, Astrocyte, 100 nM) of 58.5%. For the same compound, the inhibition at 1 µM in series [3] (Mus musculus, Astrocyte, 1 μM) was 62.8%; in [8] (Mus musculus, Astrocyte, 1 μM, read-out: % inhibition of IL-6 release), 62.6%. The “astrocyte activation (p65 translocation into the astrocyte nucleus)” value in series [13] is on record as “significantly reduced astrocyte activation”. For the same compound, the “transcripts encoding markers of activation of microglia/macrophages” value in series [14] was “decreased”. For the same compound, the TNF-α secretion entry in series [15] is “attenuated”; in [17] (human microglia, LPS activation), “attenuated”. Also, in series [16], the clinical disease entry was “ameliorates clinical disease”. Besides, the “expansion of pre-existing lesions” value in series [16] is listed as “inhibits further expansion of pre-existing lesions”. In [17] (LPS activation), the “size of CD14 stained human microglia” value was “reduced”. Besides, the “microglial production of pro-inflammatory cytokine” value in [17] (human microglia) is “inhibited”. For the same compound, the oxidative glutamate toxicity result in series [18] is “protects against oxidative glutamate toxicity”. The IL-6 content in series [8] (1 nM) is recorded as 6198 pg/mL; in series [8] (10 nM), 6315 pg/mL; in series [8] (1 μM), 2640 pg/mL.
